What was measured:
[1] = test system: PDE1 enzymes versus all other PDE families; assay: Selectivity over full panel of phosphodiesterase family members; type: biochemical
Experimental: (§1) Inhibitory constant (Ki) values for Compound 1 were determined against a full panel of phosphodiesterase family members. […] In contrast, potency of Compound 1 for PDE1 A, B and C is roughly equivalent.

[2] = test system: PDE6; assay: PDE panel inhibitory constant (Ki) determination; type: biochemical
Experimental: as §1

[3] = test system: PDE1 (Bovine Brain); assay: PDE panel inhibitory constant (Ki) determination; type: biochemical
Experimental: as §1

[4] = target: T1, PDE1 (Bovine Brain); assay: PDE panel inhibitory constant (Ki) determination; type: biochemical
T1 construct: Ki; other: PDE1 (Bovine Brain)
Experimental: as §1

[5] = target: T2, PDE6; assay: PDE panel inhibitory constant (Ki) determination; type: biochemical
T2 construct: Ki; other: PDE6
Experimental: as §1

[6] = PDE panel inhibitory constant (Ki) determination; type: biochemical; conditions: PDE1D
Experimental: as §1

[7] = target: PDE1A (Homo sapiens, UniProt P54750); assay: PDE panel inhibitory constant (Ki) determination; type: biochemical
Experimental: as §1

[8] = target: PDE5 (Homo sapiens, UniProt O76074); assay: PDE panel inhibitory constant (Ki) determination; type: biochemical
Experimental: as §1

[9] = target: PDE8A (Homo sapiens, UniProt O60658); assay: PDE panel inhibitory constant (Ki) determination; type: biochemical
Experimental: as §1

[10] = target: PDE4A (Homo sapiens, UniProt P27815); assay: PDE panel inhibitory constant (Ki) determination; type: biochemical
Experimental: as §1

[11] = target: PDE3B (Homo sapiens, UniProt Q13370); assay: PDE panel inhibitory constant (Ki) determination; type: biochemical
Experimental: as §1

[12] = target: PDE2A (Homo sapiens, UniProt O00408); assay: PDE panel inhibitory constant (Ki) determination; type: biochemical
Experimental: as §1

[13] = target: PDE10A (Homo sapiens, UniProt Q9Y233); assay: PDE panel inhibitory constant (Ki) determination; type: biochemical
Experimental: as §1

[14] = target: T3, (Homo sapiens, UniProt Q08499); assay: PDE panel inhibitory constant (Ki) determination; type: biochemical; conditions: PDE1D
T3 construct: Ki; other: PDE1D
Experimental: as §1

[15] = target: PDE9A (Homo sapiens, UniProt O76083); assay: PDE panel inhibitory constant (Ki) determination; type: biochemical
Experimental: as §1

[16] = target: PDE1C (Homo sapiens, UniProt Q14123); assay: PDE panel inhibitory constant (Ki) determination; type: biochemical
Experimental: as §1

[17] = target: PDE7B (Homo sapiens, UniProt Q9NP56); assay: PDE panel inhibitory constant (Ki) determination; type: biochemical
Experimental: as §1

[18] = target: PDE1B (Homo sapiens, UniProt Q01064); assay: PDE panel inhibitory constant (Ki) determination; type: biochemical
Experimental: as §1

[19] = target: PDE11A (Homo sapiens, UniProt Q9HCR9); assay: PDE panel inhibitory constant (Ki) determination; type: biochemical
Experimental: as §1

[20] = target: Compound 2 binding to PDE1 in mouse cortex; assay: EGTA titration of Compound 2 binding (calcium dependency)
Experimental: FIG. 4 illustrates Ca^2+-dependent binding of Compound 2, as defined in Example 1, to mouse cortex. Binding of the radioligand is prevented in the presence of EGTA, a specific chelator of calcium
In a further study, binding of Compound 2 (1.5 nM) to mouse cortex was titrated with different concentration of the calcium chelator EGTA to determine the calcium dependency of the ligand binding. […] Levels of binding activity remaining in the presence of excess (200 uM) EGTA was approximately 5% relative to the binding levels in the absence of EGTA.

[21] = test system: PDE1 in striatal slices; assay: Striatal slice cGMP levels after K+ depolarization; type: cell-based; conditions: 1 μM compound preincubation, 1-minute high K+ depolarization
Experimental: FIG. 1 illustrates the effect of PDE1 inhibition on striatal cGMP levels. Striatal slices were preincubated with either vehicle or compound, followed by a 1-minute stimulation with high K+ or vehicle. cGMP levels were normalized to baseline levels for comparison. […] PDE1 inhibition by 1 μM ITI-041 or 1 μM ITI-214 in the presence of K+ depolarization (striped bars).
Striatal tissue slice preparations were used to further study regulation of PDE1 by intracellular calcium concentration. The striatal slice preparation maintains a portion of the circuitry of the intact striatum including interneurons, nerve terminals from cortical and nigral neuronal inputs, and medium spiny neurons, which account for the majority (95%) of neurons. Depolarization of the cell membrane by increasing external potassium (K+) concentration is a well-established method of stimulating striatal slices, particularly to trigger release of neurotransmitters such as glutamate from the nerve terminals. Under these conditions, both voltage gated calcium channels and NMDA receptors are expected to open, allowing an influx of calcium into the cells. The increase in intracellular calcium can both activate PDE1 in the medium spiny neurons and activate nitric oxide synthase (NOS) in the interneurons via calcium-calmodulin binding. […]

[22] = test system: PDE1 in striatal slices; assay: Striatal slice cGMP levels with ionomycin; type: cell-based; conditions: ionomycin 10 μM alone, in Krebs buffer
Experimental: (§2) FIG. 2 illustrates that increased Ca2+ is sufficient to unmask the active site of PDE1 and allow PDE1 inhibitor binding to the active site therefore increasing cGMP. Increased intracellular calcium is sufficient to increase cGMP levels in the presence of PDE1 inhibitor.
(§3) The calcium ionophore ionomycin was used to control intracellular calcium concentrations in the absence of depolarization. Ionomycin (10 μM, in Krebs buffer) increased intracellular calcium, as confirmed by increased calcium-sensitive phosphorylation of Ca2+/calmodulin-dependent protein kinase II (CaMKII), as shown in FIG. 2A. […] Elimination of extracellular calcium by replacing the calcium chloride in the Krebs solution with 3 mM EGTA prevented the elevation in cGMP seen with PDE1 inhibition and ionomycin.

[23] = test system: Ca2+/calmodulin-dependent protein kinase II (CaMKII); assay: CaMKII phosphorylation (Western blotting); type: cell-based; conditions: ionomycin 10 μM, in Krebs buffer
Experimental: as §2, §3

PDE11A, sequence (Q9HCR9 whole entry, species assumed): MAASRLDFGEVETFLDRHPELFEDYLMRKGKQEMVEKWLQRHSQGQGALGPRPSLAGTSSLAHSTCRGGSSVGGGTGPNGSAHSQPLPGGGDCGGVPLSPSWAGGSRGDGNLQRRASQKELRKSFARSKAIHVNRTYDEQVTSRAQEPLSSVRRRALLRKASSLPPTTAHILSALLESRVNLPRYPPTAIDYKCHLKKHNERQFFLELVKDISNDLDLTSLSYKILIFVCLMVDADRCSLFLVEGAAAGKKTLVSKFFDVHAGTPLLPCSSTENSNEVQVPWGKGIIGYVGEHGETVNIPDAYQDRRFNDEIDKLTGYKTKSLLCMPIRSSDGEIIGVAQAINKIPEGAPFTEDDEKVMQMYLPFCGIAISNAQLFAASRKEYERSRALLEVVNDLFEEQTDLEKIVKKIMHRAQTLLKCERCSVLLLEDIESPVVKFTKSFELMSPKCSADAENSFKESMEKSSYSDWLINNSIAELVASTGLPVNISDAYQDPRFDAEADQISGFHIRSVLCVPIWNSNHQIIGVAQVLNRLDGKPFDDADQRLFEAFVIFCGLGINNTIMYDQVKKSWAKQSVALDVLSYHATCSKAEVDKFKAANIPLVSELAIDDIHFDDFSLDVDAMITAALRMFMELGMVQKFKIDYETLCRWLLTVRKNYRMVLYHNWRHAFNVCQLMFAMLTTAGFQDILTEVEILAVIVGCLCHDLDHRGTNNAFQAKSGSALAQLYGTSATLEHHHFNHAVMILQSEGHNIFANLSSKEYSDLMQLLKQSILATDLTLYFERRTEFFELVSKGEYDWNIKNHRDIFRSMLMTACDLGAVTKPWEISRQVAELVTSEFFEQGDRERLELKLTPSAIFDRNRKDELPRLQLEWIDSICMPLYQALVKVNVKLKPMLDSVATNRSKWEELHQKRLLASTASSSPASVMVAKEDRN
PDE9A, sequence (O76083 whole entry, species assumed): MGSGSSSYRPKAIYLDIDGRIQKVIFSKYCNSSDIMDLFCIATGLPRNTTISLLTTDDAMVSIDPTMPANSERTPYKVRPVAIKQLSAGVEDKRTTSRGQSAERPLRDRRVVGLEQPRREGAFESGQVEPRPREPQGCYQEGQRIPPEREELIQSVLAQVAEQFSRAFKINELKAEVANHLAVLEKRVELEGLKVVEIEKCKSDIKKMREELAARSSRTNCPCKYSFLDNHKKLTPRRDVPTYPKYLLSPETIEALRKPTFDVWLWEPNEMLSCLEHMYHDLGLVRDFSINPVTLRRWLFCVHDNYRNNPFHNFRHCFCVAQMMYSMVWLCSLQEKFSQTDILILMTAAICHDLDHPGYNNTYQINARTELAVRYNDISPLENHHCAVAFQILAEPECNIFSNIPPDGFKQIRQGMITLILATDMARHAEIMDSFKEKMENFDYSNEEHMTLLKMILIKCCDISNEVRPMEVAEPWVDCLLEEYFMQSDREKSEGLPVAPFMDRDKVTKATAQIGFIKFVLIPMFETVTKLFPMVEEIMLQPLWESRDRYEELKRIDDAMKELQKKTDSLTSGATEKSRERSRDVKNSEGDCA
PDE1A, sequence (P54750 whole entry, species assumed): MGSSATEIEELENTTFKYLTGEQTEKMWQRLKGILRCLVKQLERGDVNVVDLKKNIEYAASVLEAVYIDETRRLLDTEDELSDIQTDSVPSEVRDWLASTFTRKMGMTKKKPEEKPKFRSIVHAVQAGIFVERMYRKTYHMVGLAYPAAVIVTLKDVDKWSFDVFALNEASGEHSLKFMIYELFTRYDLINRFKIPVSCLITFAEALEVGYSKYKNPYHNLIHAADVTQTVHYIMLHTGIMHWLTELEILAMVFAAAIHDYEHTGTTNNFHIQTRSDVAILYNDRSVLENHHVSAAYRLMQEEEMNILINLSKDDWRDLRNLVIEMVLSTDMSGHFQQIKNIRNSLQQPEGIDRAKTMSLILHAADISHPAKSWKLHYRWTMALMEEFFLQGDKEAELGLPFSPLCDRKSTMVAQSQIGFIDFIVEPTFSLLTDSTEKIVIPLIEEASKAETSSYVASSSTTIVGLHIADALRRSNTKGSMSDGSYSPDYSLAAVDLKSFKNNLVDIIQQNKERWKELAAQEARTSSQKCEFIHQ
PDE3B, sequence (Q13370 whole entry, species assumed): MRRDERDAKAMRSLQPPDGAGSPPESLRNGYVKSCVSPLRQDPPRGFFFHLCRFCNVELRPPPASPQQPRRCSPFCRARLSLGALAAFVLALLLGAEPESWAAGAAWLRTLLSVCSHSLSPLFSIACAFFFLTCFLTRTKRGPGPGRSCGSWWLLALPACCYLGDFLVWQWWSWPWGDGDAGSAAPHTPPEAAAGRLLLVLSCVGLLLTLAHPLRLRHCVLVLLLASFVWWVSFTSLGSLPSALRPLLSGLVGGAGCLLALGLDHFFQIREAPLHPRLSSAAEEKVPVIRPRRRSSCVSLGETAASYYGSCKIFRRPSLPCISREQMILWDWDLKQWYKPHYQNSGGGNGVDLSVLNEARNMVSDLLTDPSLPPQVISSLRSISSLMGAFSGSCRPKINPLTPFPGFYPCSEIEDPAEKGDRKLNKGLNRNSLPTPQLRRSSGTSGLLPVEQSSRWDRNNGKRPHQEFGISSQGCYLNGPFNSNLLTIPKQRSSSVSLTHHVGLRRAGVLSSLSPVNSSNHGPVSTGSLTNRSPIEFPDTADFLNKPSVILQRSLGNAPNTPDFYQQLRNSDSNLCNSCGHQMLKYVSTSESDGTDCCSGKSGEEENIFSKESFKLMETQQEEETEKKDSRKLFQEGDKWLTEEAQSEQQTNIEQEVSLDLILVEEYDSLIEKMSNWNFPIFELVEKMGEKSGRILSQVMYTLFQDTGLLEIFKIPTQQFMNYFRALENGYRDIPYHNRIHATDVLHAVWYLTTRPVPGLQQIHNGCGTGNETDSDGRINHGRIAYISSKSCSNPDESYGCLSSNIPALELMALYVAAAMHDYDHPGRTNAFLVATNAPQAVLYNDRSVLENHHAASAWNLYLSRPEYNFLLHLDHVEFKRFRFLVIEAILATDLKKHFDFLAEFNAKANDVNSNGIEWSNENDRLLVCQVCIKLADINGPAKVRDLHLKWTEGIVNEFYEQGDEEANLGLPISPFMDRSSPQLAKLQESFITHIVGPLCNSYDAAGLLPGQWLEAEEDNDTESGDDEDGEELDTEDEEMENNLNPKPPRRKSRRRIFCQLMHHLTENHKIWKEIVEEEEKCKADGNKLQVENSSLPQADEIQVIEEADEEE
PDE4A, sequence (P27815 whole entry, species assumed): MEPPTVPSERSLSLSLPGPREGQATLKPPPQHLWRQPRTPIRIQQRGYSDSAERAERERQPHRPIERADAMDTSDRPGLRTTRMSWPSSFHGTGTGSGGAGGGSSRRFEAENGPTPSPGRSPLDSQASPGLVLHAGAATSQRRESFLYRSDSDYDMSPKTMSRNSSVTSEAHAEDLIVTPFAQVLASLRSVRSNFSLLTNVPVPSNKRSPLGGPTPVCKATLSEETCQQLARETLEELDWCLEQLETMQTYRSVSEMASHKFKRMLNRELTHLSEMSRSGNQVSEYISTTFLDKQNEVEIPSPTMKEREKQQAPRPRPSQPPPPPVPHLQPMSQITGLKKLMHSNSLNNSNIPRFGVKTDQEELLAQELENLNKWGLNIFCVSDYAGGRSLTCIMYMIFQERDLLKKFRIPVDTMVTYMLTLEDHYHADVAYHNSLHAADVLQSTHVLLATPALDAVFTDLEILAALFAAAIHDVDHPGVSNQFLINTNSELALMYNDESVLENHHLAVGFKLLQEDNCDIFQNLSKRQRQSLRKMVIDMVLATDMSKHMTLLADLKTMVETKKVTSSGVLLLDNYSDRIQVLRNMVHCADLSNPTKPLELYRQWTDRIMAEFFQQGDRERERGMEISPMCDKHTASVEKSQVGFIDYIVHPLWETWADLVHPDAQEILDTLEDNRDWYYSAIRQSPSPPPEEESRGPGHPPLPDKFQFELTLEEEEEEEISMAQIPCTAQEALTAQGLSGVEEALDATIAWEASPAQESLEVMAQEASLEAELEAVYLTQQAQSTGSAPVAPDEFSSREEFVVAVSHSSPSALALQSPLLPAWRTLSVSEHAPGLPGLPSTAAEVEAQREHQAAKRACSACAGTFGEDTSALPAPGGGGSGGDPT
PDE8A, sequence (O60658 whole entry, species assumed): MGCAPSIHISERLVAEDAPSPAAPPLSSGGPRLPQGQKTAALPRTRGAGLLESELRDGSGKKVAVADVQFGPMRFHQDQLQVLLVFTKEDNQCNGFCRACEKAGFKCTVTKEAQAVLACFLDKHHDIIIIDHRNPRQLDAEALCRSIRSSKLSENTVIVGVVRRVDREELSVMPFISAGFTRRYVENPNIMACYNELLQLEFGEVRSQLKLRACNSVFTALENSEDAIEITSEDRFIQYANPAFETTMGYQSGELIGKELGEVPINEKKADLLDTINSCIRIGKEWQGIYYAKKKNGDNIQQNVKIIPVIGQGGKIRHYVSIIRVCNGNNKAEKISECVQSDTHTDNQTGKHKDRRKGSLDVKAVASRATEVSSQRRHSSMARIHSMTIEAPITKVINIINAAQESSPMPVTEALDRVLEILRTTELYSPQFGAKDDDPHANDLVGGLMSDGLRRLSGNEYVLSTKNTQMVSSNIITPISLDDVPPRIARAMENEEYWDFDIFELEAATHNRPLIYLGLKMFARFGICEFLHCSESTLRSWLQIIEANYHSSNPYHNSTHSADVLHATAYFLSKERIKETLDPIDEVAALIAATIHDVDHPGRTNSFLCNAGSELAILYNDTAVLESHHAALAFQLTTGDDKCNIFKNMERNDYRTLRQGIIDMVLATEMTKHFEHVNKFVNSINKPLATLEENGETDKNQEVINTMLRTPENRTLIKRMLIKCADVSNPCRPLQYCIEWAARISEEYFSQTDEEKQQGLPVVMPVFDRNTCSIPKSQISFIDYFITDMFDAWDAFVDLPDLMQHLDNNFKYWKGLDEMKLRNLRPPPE

In the case of `CN1C(=O)c2c(nn(Cc3ccc(C4CCCN4C)cc3)c2Nc2ccc(F)cc2)N2CC(C)(C)N=C12` (stereo not shown) [Compound 1, 3-((4-fluorophenyl)amino)-5,7,7-trimethyl-2-(4-(1-methylpyrrolidin-2-yl)benzyl)-7,8-dihydro-2H-imidazo[1,2-a]pyrazolo[4,3-e]pyrimidin-4(5H)-one], the “selectivity toward all other PDE families” value [1] is reported as > 1000 fold, the “Ratio PDEx/PDE1A” value [2] is reported as 9,122 and the “Ratio PDEx/PDE1A” value [3] is reported as 0.67. For the same compound, the Ki [4] was 0.001 µM, the Ki [5] was 14.1 µM and the “Ratio PDEx/PDE1A” value [6] was 1,561. For the same compound, the Ki [7] was 0.0015 µM, the “Ratio PDEx/PDE1A” value [7] was 1 and the Ki [8] was 48.9 µM. The “Ratio PDEx/PDE1A” value [8] was 31,595, the Ki [9] was > 100 µM and the “Ratio PDEx/PDE1A” value [9] was >64,589. The Ki [10] was 6.6 µM, the “Ratio PDEx/PDE1A” value [10] was 4,263 and the Ki [11] was 78.9 µM. For the same compound, the “Ratio PDEx/PDE1A” value [11] was 50,983, the Ki [12] was > 100 µM and the “Ratio PDEx/PDE1A” value [12] was >64,589. The Ki [13] was 42.9 µM, the “Ratio PDEx/PDE1A” value [13] was 27,687 and the Ki [14] was 2.4 µM. The Ki [15] was > 100 µM, the “Ratio PDEx/PDE1A” value [15] was >64,589 and the Ki [16] was 0.0013 µM. The “Ratio PDEx/PDE1A” value [16] was 0.85, the Ki [17] was 13.1 µM and the “Ratio PDEx/PDE1A” value [17] was 8,448. The Ki [18] was 0.0092 µM, the “Ratio PDEx/PDE1A” value [18] was 5.9 and the Ki [19] was 40.7 µM. The “Ratio PDEx/PDE1A” value [19] was 26,289.

In the case of `O=C(O)CN(CCOCCOCCN(CC(=O)O)CC(=O)O)CC(=O)O` [EGTA], the IC50 ([20]; Compound 2 1.5 nM, mouse cortex, read-out: IC50 for decrease of specific binding of Compound 2) is reported as 7.7 µM, the “binding of the radioligand in the presence of EGTA” value ([20]; FIG. 4, mouse cortex) is reported as “prevented” and the “binding activity remaining relative to absence of EGTA” value ([20]; excess (200 uM) EGTA, mouse cortex) is reported as “approximately 5%”.

For `CN1C(=O)c2c(nn(Cc3ccc(-c4cccc(F)n4)cc3)c2Nc2ccccc2)N2C1=N[C@@H]1CCC[C@@H]12` [ITI-214], the “striatal cGMP levels” value [21] was “increased cyclic nucleotide levels”.

With `C[C@H](CCC(=O)O)C[C@H](C)C[C@H](C)C(=O)/C=C(\O)[C@H](C)C[C@H](C)C/C=C/[C@@H](C)[C@@H](O)[C@@H](C)[C@@H](O)C[C@@H]1CC[C@@](C)([C@H]2CC[C@@](C)([C@@H](C)O)O2)O1` [Ionomycin, ionomycin] the “striatal cGMP levels” value [22] was “did not lead to elevated cGMP levels” and the “calcium-sensitive phosphorylation of CaMKII” value [23] was “increased”.
